Measurements from patent US8507464B2, “Phosphoramidate alkylator prodrugs” (Threshold Pharmaceuticals, Inc., priority 2005, dated 2013).
Read-outs that look alike come from different tables or passages of the source.

How the values were obtained:
[1] = test system: NCI-H460 cells; experiment: Antiproliferation assay - oxygen dependence; format: cell-based, human
Excerpt: . […] The calculated IC50 values (μM) are tabulated in Table Y1 (H460 cells) or Table Y2 (HT29 cells) below.

[2] = test system: NCI-H460 cells; experiment: Antiproliferation assay (Alamar Blue), anoxia vs air
[3] = test system: H460 cell line; experiment: Anti-proliferation assay, hypoxia vs normoxia (Table 1A); settings: for IC50: Homo sapiens; for HCR P: ratio of IC50 in normoxia and hypoxia
[4] = Homo sapiens, NCI-H460, read-out: IC50 in H460 cells, 0.6% O2
[5] = Homo sapiens, NCI-H460, read-out: IC50 in H460 cells, Air
[6] = Homo sapiens, NCI-H460, read-out: IC50 in H460 cells, N2
[7] = Homo sapiens, NCI-H460, 2 h, read-out: IC50 H460 Air, air, 2 h exposure
[8] = Homo sapiens, NCI-H460, 2 h, read-out: IC50 H460 Anoxia, anoxia, 2 h exposure
[9] = NCI-H460, read-out: Hypoxia P (proliferation IC50)
[10] = NCI-H460, read-out: Normoxia P (proliferation IC50)
[11] = read-out: IC50 in H460 cells, 0.6% O2
[12] = Air; read-out: IC50 in H460 cells, Air
[13] = read-out: IC50 H460 Air, air, 2 h exposure
[14] = read-out: IC50 H460 Anoxia, anoxia, 2 h exposure
[15] = Homo sapiens, NCI-H460; read-out: IC50 in H460 cells, Air

SMILES: O=[N+]([O-])c1ccc(-c2ccc(COP(=O)(NCCBr)NCCBr)cc2)o1 [Compound 55]
- IC50 [1, 4]: 8 µM
- IC50 [1, 5]: 12 µM
- IC50 [1, 6]: 5 µM
- IC50 [2, 7]: 12 µM
- IC50 [2, 8]: 5 µM

SMILES: CN(CCCl)P(=O)(OCc1ccc([N+](=O)[O-])o1)N(C)CCCl [Compound 8]
- IC50 [3, 9]: 0.01 µM
- IC50 [3, 10]: 0.6 µM
- HCR P [3]: 60
- IC50 [2, 7]: 0.6 µM
- IC50 [2, 8]: 0.013 µM

SMILES: CN(CCCl)P(=O)(OCc1ncc([N+](=O)[O-])n1C)N(C)CCCl [Compound 9]
- IC50 [3, 9]: > 10 µM
- IC50 [3, 10]: > 100 µM
- HCR P [3]: >10
- IC50 [2, 7]: > 100 µM
- IC50 [2, 8]: > 10 µM

SMILES: COc1cc(COP(=O)(NCCBr)NCCBr)ccc1OCc1cnc([N+](=O)[O-])n1C [Compound 56]
- IC50 [1, 4]: 8 µM
- IC50 [1, 5]: 10 µM
- IC50 [1, 6]: 0.5 µM
- IC50 [2, 7]: 10 µM
- IC50 [2, 8]: 0.5 µM

SMILES: O=[N+]([O-])c1ccc(COP(=O)(N(CCCl)CCCl)N2CCOCC2)o1 (stereo not shown) [Compound 12]
- IC50 [3, 9]: 1.7 µM
- IC50 [3, 10]: > 100 µM
- HCR P [3]: >50
- IC50 [2, 7]: > 100 µM
- IC50 [2, 8]: 1.7 µM

SMILES: C[C@H](CBr)NP(=O)(N[C@H](C)CBr)OCc1cnc([N+](=O)[O-])n1C [Compound 66]
- IC50 [1, 11]: 20 µM
- IC50 ([1]; read-out: IC50 in H460 cells, N2): 0.3 µM
- IC50 ([2]; read-out: IC50 H460 Anoxia): 0.3 µM

SMILES: CC(OP(N)(=O)N(CCCl)CCCl)c1ncc([N+](=O)[O-])n1C (stereo not shown) [Compound 2]
- IC50 [3, 9]: 8 µM
- IC50 [3, 10]: > 100 µM
- HCR P [3]: >12
- IC50 [2, 7]: > 100 µM
- IC50 [2, 8]: 8 µM

SMILES: O=[N+]([O-])c1ccc(COP(=O)(NCCNP(=O)(OCc2ccc([N+](=O)[O-])o2)N(CCCl)CCCl)N(CCCl)CCCl)o1 (stereo not shown) [Compound 21]
- IC50 [3, 9]: 0.25 µM
- IC50 [3, 10]: 7.8 µM
- HCR P [3]: 26

SMILES: Cc1csc(C(C)OP(=O)(NCCCl)NCCCl)c1[N+](=O)[O-] (stereo not shown) [Compound 100]
- IC50 [1, 12]: 35 µM
- IC50 ([1]; N2; read-out: IC50 in H460 cells, N2): 0.5 µM
- IC50 [1, 11]: 10 µM
- IC50 [2, 13]: 35 µM
- IC50 [2, 14]: 0.5 µM

SMILES: CC(C)[C@H](CCl)NP(=O)(N[C@@H](CCl)C(C)C)OCc1ccc([N+](=O)[O-])s1 [Compound 44]
- IC50 [1, 4]: 45 µM
- IC50 [1, 15]: > 100 µM
- IC50 [2, 7]: 100 µM
- IC50 [2, 8]: 3 µM

SMILES: Cn1c(COc2ccc(COP(=O)(NCCBr)NCCBr)cc2F)cnc1[N+](=O)[O-] [Compound 50]
- IC50 [1, 4]: 3 µM
- IC50 [1, 5]: 3 µM
- IC50 [2, 7]: 3 µM
- IC50 [2, 8]: 0.1 µM

SMILES: O=[N+]([O-])c1ccc(COP2(=O)N(CCBr)CCN2CCBr)s1 [Compound 110]
- IC50 [1, 4]: 3 µM
- IC50 [1, 5]: 25 µM
- IC50 [1, 6]: 0.3 µM
- IC50 [2, 7]: 21 µM
- IC50 [2, 8]: 0.3 µM

SMILES: O=[N+]([O-])c1ccc(COP(=O)(N(CCCl)CCCl)N(CCCl)CCCl)o1 [Compound P22, reference compound]
- IC50 [3, 9]: 4.5 µM
- IC50 [3, 10]: 3.5 µM
- HCR P [3]: ca. 1

SMILES: O=[N+]([O-])c1ccc(COP(=O)(NCCCCNP(=O)(OCc2ccc([N+](=O)[O-])o2)N(CCCl)CCCl)N(CCCl)CCCl)o1 (stereo not shown) [Compound 20]
- IC50 [3, 9]: 1 µM
- IC50 [3, 10]: 8.5 µM
- HCR P [3]: 8

SMILES: N#Cc1cc(C#CCOP(=O)(NCCBr)NCCBr)sc1[N+](=O)[O-] [Compound 98]
- IC50 [1, 12]: 2 µM
- IC50 [1, 11]: 0.5 µM
- IC50 [2, 13]: 2 µM
- IC50 [2, 14]: 0.1 µM

SMILES: CCCn1c(COP(=O)(NCCBr)NCCBr)cnc1[N+](=O)[O-] [Compound 84]
- IC50 [1, 4]: 3 µM
- IC50 [1, 5]: 40 µM
- IC50 [2, 7]: 40 µM
- IC50 [2, 8]: 0.003 µM

SMILES: C[C@@H](CCl)NP(=O)(N[C@@H](C)CCl)OCc1cnc([N+](=O)[O-])n1C [Compound 38]
- IC50 [1, 4]: 45 µM
- IC50 ([1]; Homo sapiens, NCI-H460, read-out: IC50 in H460 cells, 1% O2): > 100 µM
- IC50 ([1]; Homo sapiens, NCI-H460; read-out: IC50 in H460 cells, N2): 0.4 µM
- IC50 [2, 7]: > 100 µM
- IC50 [2, 8]: 0.33 µM

SMILES: CN(CCCl)P(=O)(OCc1c(F)c(F)c(OCc2ncc([N+](=O)[O-])n2C)c(F)c1F)N(C)CCCl [Compound 17]
- IC50 [3, 9]: 1 µM
- IC50 [3, 10]: 9 µM
- HCR P [3]: 9
- IC50 [2, 7]: 9 µM
- IC50 [2, 8]: 1 µM

SMILES: CC#Cc1cc(COP(=O)(NCCBr)NCCBr)sc1[N+](=O)[O-] [Compound 99]
- IC50 [1, 12]: 1 µM
- IC50 [1, 11]: 0.5 µM
- IC50 [2, 13]: 1 µM
- IC50 [2, 14]: 0.1 µM

SMILES: C[C@H](CCl)NP(=O)(N[C@H](C)CCl)OCc1ccc(-c2ccc([N+](=O)[O-])s2)cc1 [Compound 52]
- IC50 [1, 4]: 10 µM
- IC50 [1, 15]: 20 µM
- IC50 [2, 7]: 20 µM
- IC50 [2, 8]: 15 µM

SMILES: O=[N+]([O-])c1ccc(COP(=O)(N(CCCl)CCCl)N2CCCC2)o1 (stereo not shown) [Compound 11]
- IC50 [3, 9]: 5.2 µM
- IC50 [3, 10]: > 100 µM
- HCR P [3]: >20
- IC50 [2, 7]: > 100 µM
- IC50 [2, 8]: 5.2 µM
